These results are taken from article PMC12538393 (RSC Advances, 2025).

The target in one test is ACE (Homo sapiens, UniProt P12821). In words: In vitro ACE inhibitory activity, DOJINDO ACE Kit-WST reagent box. The class given is biochemical.
In the next test the test system is hypertensive animals. The conditions noted are these: snake venom peptide; cited from earlier work.

Chain of ACE (P12821 30-1306, species assumed): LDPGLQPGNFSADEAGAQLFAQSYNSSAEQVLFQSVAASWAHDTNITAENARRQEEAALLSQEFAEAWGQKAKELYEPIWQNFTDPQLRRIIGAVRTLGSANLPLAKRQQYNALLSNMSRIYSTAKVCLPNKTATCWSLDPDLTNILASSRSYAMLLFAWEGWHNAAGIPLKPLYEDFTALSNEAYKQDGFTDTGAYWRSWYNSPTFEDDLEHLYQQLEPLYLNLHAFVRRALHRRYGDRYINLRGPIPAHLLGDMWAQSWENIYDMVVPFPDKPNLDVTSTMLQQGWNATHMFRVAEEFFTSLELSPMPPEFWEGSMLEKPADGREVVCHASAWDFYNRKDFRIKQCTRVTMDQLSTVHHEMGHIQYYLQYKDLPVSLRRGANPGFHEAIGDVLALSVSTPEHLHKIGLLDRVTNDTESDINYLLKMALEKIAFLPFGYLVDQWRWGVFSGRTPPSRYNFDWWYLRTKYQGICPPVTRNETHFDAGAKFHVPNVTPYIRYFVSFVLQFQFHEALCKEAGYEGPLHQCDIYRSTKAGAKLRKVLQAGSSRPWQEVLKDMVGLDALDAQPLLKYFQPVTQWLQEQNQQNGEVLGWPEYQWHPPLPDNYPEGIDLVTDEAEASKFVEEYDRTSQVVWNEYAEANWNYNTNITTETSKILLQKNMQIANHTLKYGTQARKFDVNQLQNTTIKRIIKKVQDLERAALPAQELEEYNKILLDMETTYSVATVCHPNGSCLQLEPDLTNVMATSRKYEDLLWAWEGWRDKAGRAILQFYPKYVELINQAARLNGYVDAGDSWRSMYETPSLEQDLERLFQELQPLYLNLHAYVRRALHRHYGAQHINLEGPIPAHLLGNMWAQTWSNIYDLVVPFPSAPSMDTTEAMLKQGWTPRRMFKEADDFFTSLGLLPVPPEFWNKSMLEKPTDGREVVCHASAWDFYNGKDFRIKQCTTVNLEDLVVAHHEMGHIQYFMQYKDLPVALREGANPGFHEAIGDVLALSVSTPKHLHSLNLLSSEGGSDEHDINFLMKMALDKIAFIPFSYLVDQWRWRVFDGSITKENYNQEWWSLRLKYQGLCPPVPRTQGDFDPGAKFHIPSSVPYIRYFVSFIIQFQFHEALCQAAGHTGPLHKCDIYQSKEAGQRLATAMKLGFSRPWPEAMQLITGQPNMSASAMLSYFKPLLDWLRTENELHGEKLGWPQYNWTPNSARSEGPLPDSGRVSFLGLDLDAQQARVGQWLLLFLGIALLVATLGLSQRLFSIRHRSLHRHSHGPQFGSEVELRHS

For the substance H-Asp-Arg-Tyr-OH [D2], the “ACE-inhibitory activity, comparison in words” value on ACE is “potencies are still higher than that of compound 144”. On the same count and under the same terms, for H-Leu-Arg-Asn-OH [D1] the value was “potencies are still higher than that of compound 144”.

Pyr-Trp-Pro-Arg-Pro-Gln-Ile-Pro-Pro: in the test with hypertensive animals, the “antihypertensive effect for hypertensive animals” value is given as “best antihypertensive effect for hypertensive animals”.
